Experimental data: paper PMC10145285, “Diverse Biological Activity of Benzofuroxan/Sterically Hindered Phenols Hybrids” (Pharmaceuticals, 2023)
In brackets after ≈: the same amount, converted by molar mass.

Experiments:
T98G = experiment: cells; type: cell-based; conditions: Homo sapiens, 48 h, read-out: IC50, T98G
A549 = experiment: cells; conditions: Homo sapiens, A549, 48 h, read-out: IC50, A549
HuTu 80 = experiment: cells; conditions: Homo sapiens, HuTu80, 48 h, read-out: IC50, HuTu 80
M-HeLa [1] = experiment: cells; conditions: Homo sapiens, 48 h, read-out: IC50, M-HeLa
MCF-7 = experiment: cells; type: cell-based, human; conditions: for IC50: Homo sapiens, MCF7, 48 h, read-out: IC50, MCF-7
WI38 = experiment: cells; type: cell-based; conditions: Homo sapiens, WI-38, 48 h, read-out: IC50, WI38
M-HeLa cells = experiment: Intracellular ROS, CellROX Deep Red flow cytometry; type: cell-based, human; conditions: concentration equal to IC50 cytotoxicity on M-HeLa, 48 h; result in words
Description: Apoptosis can be induced in various ways, including an increase in the production of reactive oxygen species (ROS) in the cell, with subsequent oxidative stress and destruction of membrane lipids, proteins and nucleic acids. Thus, chemical compounds that disturb the redox balance and lead to the production and accumulation of ROS are potential agents for targeting the transformed cells. To understand the possible synergy between the different components of these hybrid agents, we compared the ROS production for compounds 4c, 5d, starting phenols 2c, 2d and furoxan 3 at the concentration of IC50 cytotoxicity on M-HeLa cells (Figure 4). A significant increase in CellROX® Deep Red fluorescence intensity indicates an increase in ROS production.
Detection of Intracellular ROS. […] ROS generation was investigated using flow cytometry assay and CellROX® Deep Red flow cytometry kit. For this M-HeLa cells were harvested at 2000 rpm for 5 min and then washed twice with ice-cold PBS, followed by resuspension in 0.1 mL of medium without FBS, to which was added 0.2 μL of CellROX® Deep Red and incubated at 37 °C for 30 min. After three times washing the cells and suspending them in PBS, the production of ROS in the cells was immediately monitored using flow cytometer (Guava easy Cyte, Merck, Rahway, NJ, USA).

[2] = tested on: HuTu 80, MCF-7 and human cervical carcinoma cell lines; experiment: cells; type: cell-based; conditions: 120 h, read-out: IC50 range over HuTu 80, MCF-7 and human cervical carcinoma lines
[3] = tested on: Bacillus cereus ATCC 10702 (Bc); experiment: Antimicrobial serial microdilution, Bc; type: cell-based; conditions: for MIC: ATCC10702, read-out: Minimum Inhibitory Concentration (MIC), Bc
MRSA-1 = experiment: Antimicrobial serial microdilution, MRSA-1; type: cell-based, Staphylococcus aureus; conditions: for MIC: read-out: Minimum Inhibitory Concentration (MIC), MRSA-1
MRSA-2 = experiment: Antimicrobial serial microdilution, MRSA-2; type: cell-based, Staphylococcus aureus; conditions: for MIC: read-out: Minimum Inhibitory Concentration (MIC), MRSA-2
PANC-1 = experiment: cells; conditions: Homo sapiens, PANC-1, 48 h, read-out: IC50, PANC-1
A375 = experiment: cells; type: cell-based; conditions: Homo sapiens, A-375, 48 h, read-out: IC50, A375
[4] = tested on: Staphylococcus aureus ATCC 6538P FDA 209P (Sa); experiment: Antimicrobial serial microdilution, Sa; type: cell-based; conditions: for MIC: read-out: Minimum Inhibitory Concentration (MIC), Sa
Chang Liver = experiment: cells; conditions: Homo sapiens, 48 h, read-out: IC50, Chang Liver
PC3 = experiment: cells; type: cell-based; conditions: Homo sapiens, PC-3, 48 h, read-out: IC50, PC3
M-HeLa [5] = tested on: M-HeLa
[6] = tested on: Enterococcus faecalis ATCC 29212 (Ef); experiment: Antimicrobial serial microdilution, Ef; type: cell-based; conditions: for MIC: Enterococcus faecalis, ATCC29212, read-out: Minimum Inhibitory Concentration (MIC), Ef
[7] = 500 ng/mL spike, sampled 5, 15, 30 min, 1 and 2 hours; result in words

## CC(C)OP(=O)(OC(C)C)C(c1cc(C(C)(C)C)c(O)c(C(C)(C)C)c1)c1ccc(Nc2c([N+](=O)[O-])cc([N+](=O)[O-])c3no[n+]([O-])c23)nc1N (stereo not drawn) [4c, 7-((6-amino-5-((3,5-di-tert-butyl-4-hydroxyphenyl)(diisopropoxyphosphoryl)methyl)pyridin-2-yl)amino)-4,6-dinitrobenzo[c][1,2,5]oxadiazole 1-oxide]
T98G
  IC50: 2.2 ± 0.1 µM
A549
  IC50: 0.9 ± 0.08 µM
HuTu 80
  IC50: 0.9 ± 0.07 µM
M-HeLa [1]
  IC50: 0.9 ± 0.07 µM
MCF-7
  Times more active than the starting SHP, MCF-7: 20 times
  IC50: 1.1 ± 0.1 µM
WI38
  IC50: 2 ± 0.1 µM
M-HeLa cells
  ROS production (CellROX Deep Red fluorescence intensity): ROS production significantly exceeds that for the original phenol 2c and furoxan 3
[2]
  IC50: 0.9 to 5.9 µM
[3]
  Minimum Inhibitory Concentration (MIC), Bc: -
MRSA-1; serial microdilution, strain resistant to β-lactams and fluoroquinolones
  Minimum Inhibitory Concentration (MIC), MRSA-1: -
MRSA-2; serial microdilution, strain resistant only to β-lactams
  Minimum Inhibitory Concentration (MIC), MRSA-2: -
PANC-1
  IC50: 11.2 ± 0.9 µM
A375
  IC50: 2.9 ± 0.2 µM
[4]
  Minimum Inhibitory Concentration (MIC), Sa: -
Chang Liver
  IC50: 2.1 ± 0.7 µM
PC3
  IC50: 1.2 ± 1 µM
M-HeLa [5]
  Times more active than the starting SHP, M-HeLa: 40 times
[6]
  Minimum Inhibitory Concentration (MIC), Ef: -

## CC(C)OP(=O)(OC(C)C)C(c1cc(C(C)(C)C)c(O)c(C(C)(C)C)c1)c1ccc(Nc2c([N+](=O)[O-])cc([N+](=O)[O-])c3no[n+]([O-])c23)nc1Nc1c([N+](=O)[O-])cc([N+](=O)[O-])c2no[n+]([O-])c12 (stereo not drawn) [5c, 7,7’-((3-((3,5-di-tert-butyl-4-hydroxyphenyl)(diisopropoxyphosphoryl)methyl)pyridine-2,6-diyl)bis(azanediyl))bis(4,6-dinitrobenzo[c][1,2,5]oxadiazole 1-oxide)]
T98G
  IC50: 7.7 ± 0.6 µM
A549
  IC50: 7.7 ± 0.6 µM
HuTu 80
  IC50: 3.9 ± 0.3 µM
M-HeLa [1]
  IC50: 2.4 ± 0.2 µM
MCF-7
  IC50: 4.5 ± 0.4 µM
WI38
  IC50: 5 ± 0.4 µM
[3]; Bacillus cereus
  MIC: 31.3 ± 2.5 µg/mL (≈ 33.3 µM)
[3]; Bacillus cereus, ATCC10702, read-out: Minimum bactericidal and fungicidal concentrations (MBC), (MFC), Bc
  MBC: 250 ± 20 µg/mL (≈ 266 µM)
MRSA-1
  Minimum bactericidal and fungicidal concentrations (MBC), (MFC), MRSA-1: -
MRSA-1; Staphylococcus aureus, MRSA
  MIC: 62.5 ± 5.5 µg/mL (≈ 66.5 µM)
MRSA-2
  Minimum bactericidal and fungicidal concentrations (MBC), (MFC), MRSA-2: -
MRSA-2; Staphylococcus aureus, MRSA
  MIC: 250 ± 20 µg/mL (≈ 266 µM)
PANC-1
  IC50: 5 ± 0.3 µM
A375
  IC50: 9 ± 0.8 µM
[4]
  Minimum bactericidal and fungicidal concentrations (MBC), (MFC), Sa: -
[4]; Staphylococcus aureus
  MIC: 31.3 ± 2.3 µg/mL (≈ 33.3 µM)
Chang Liver
  IC50: 4.1 ± 0.8 µM
PC3
  IC50: 6.8 ± 0.5 µM
[6]
  Minimum bactericidal and fungicidal concentrations (MBC), (MFC), Ef: -
  MIC: 62.5 ± 5.3 µg/mL (≈ 66.5 µM)

## CC(C)(C)c1cc(C(c2ccc(Nc3c([N+](=O)[O-])cc([N+](=O)[O-])c4no[n+]([O-])c34)nc2Nc2c([N+](=O)[O-])cc([N+](=O)[O-])c3no[n+]([O-])c23)P(=O)(Oc2ccccc2)Oc2ccccc2)cc(C(C)(C)C)c1O (stereo not drawn) [5d, 7,7’-((3-((3,5-di-tert-butyl-4-hydroxyphenyl)(diphenoxyphosphoryl)methyl)pyridine-2,6-diyl)bis(azanediyl))bis(4,6-dinitrobenzo[c][1,2,5]oxadiazole 1-oxide)]
T98G
  IC50: 4.8 ± 0.4 µM
A549
  IC50: 5.2 ± 0.4 µM
HuTu 80
  IC50: 4.9 ± 0.3 µM
M-HeLa [1]
  IC50: 2 µM
MCF-7
  Times more active than the starting SHP, MCF-7: 7.6 times
  IC50: 2.1 µM
WI38
  IC50: 8.4 ± 0.7 µM
[2]
  IC50: 0.9 to 5.9 µM
[3]
  Minimum bactericidal and fungicidal concentrations (MBC), (MFC), Bc: -
[3]; Bacillus cereus
  MIC: 62.5 ± 5.4 µg/mL (≈ 62 µM)
MRSA-1; Staphylococcus aureus, MRSA
  MIC: 62.5 ± 5.3 µg/mL (≈ 62 µM)
MRSA-1; Staphylococcus aureus, MRSA, read-out: Minimum bactericidal and fungicidal concentrations (MBC), (MFC), MRSA-1
  MBC: 250 ± 20 µg/mL (≈ 248 µM)
MRSA-2; Staphylococcus aureus, MRSA
  MIC: 250 ± 19 µg/mL (≈ 248 µM)
MRSA-2; Staphylococcus aureus, MRSA, read-out: Minimum bactericidal and fungicidal concentrations (MBC), (MFC), MRSA-2
  MBC: 250 ± 19 µg/mL (≈ 248 µM)
PANC-1
  IC50: 2.8 µM
A375
  IC50: 5.9 ± 0.5 µM
[4]; Staphylococcus aureus
  MIC: 15.6 ± 1.2 µg/mL (≈ 15.5 µM)
[4]; Staphylococcus aureus, read-out: Minimum bactericidal and fungicidal concentrations (MBC), (MFC), Sa
  MBC: 125 ± 10 µg/mL (≈ 124 µM)
Chang Liver
  IC50: 9.2 ± 1.9 µM
PC3
  IC50: 5.9 ± 0.4 µM
[7]
  Biostability in whole mice blood (peak area relative to 5 min value): metabolized, but its rate is quite low
M-HeLa [5]
  Times more active than the starting SHP, M-HeLa: 3.7 times
[6]
  Minimum bactericidal and fungicidal concentrations (MBC), (MFC), Ef: -
  MIC: 62.5 ± 5.2 µg/mL (≈ 62 µM)
